# Source: ChEMBL document CHEMBL4382286, “Nongenotoxic 3-Nitroimidazo[1,2-a]pyridines Are NTR1 Substrates That Display Potent in Vitro Antileishmanial Activity” (ACS Med Chem Lett, 2019)
# What was measured:
# [1] = Cytotoxicity against human HepG2 cells after 72 hrs by MTT assay; format: cell-based
# Leishmania donovani [2] = assay: Antileishmanial activity against intracellular amastigote stage of Leishmania donovani infected in human THP1 cells after 120 hrs by giemsa staining based microscopic analysis; format: functional, organism-based; details: THP-1, 120 h
# Leishmania infantum [3] = assay: Antileishmanial activity against Leishmania infantum axenic amastigotes after 48 hrs by steady-glo luciferase reporter gene assay; format: functional, organism-based
# [4] = tested on: Trypanosoma brucei brucei; assay: Antitrypanosomal activity against trypomastigote stage of Trypanosoma brucei brucei AnTat 1.9 assessed as decrease in parasite viability after 69 hrs by Alamar Blue assay; format: functional, organism-based; details: AnTat 1.9, 69 h
# [5] = Aqueous solubility of the compound at >62.5 uM; format: physicochemical; details: buffer
# [6] = Aqueous solubility of the compound at >12.5 uM; format: physicochemical; details: buffer
# Leishmania donovani [7] = assay: Antileishmanial activity against wild type promastigote stage of Leishmania donovani MHOM/SD/62/1S-CL2D after 72 hrs by resazurin dye based fluorescence assay; format: functional, organism-based
# [8] = Substrate activity at NTR1 in promastigote stage of Leishmania donovani MHOM/SD/62/1S-CL2D assessed as inhibition of parasite growth after 72 hrs by resazurin dye based assay
# [9] = Substrate activity at NTR2 in promastigote stage of Leishmania donovani MHOM/SD/62/1S-CL2D assessed as inhibition of parasite growth after 72 hrs by resazurin dye based assay
# Leishmania donovani [10] = assay: Selectivity ratio of IC50 for wild type promastigote stage of Leishmania donovani MHOM/SD/62/1S-CL2D to IC50 for NTR1 in promastigote stage of Leishmania donovani MHOM/SD/62/1S-CL2D
# Leishmania donovani [11] = assay: Selectivity ratio of IC50 for NTR2 in promastigote stage of Leishmania donovani MHOM/SD/62/1S-CL2D to IC50 for NTR1 in promastigote stage of Leishmania donovani MHOM/SD/62/1S-CL2D
# [12] = Electrochemical behavior of the compound assessed as redox potential corrected toward normal hydrogen electrode by cyclic voltammetry
# Leishmania donovani [13] = assay: Antileishmanial activity against promastigote stage of Leishmania donovani MHOM/IN/00/DEVI after 72 hrs by MTT assay; format: functional, organism-based
# [14] = Solubility of the compound in RPMI medium at 4 to 6 uM; format: physicochemical
# [15] = Selectivity index, ratio of CC50 for human HepG2 cells to IC50 for promastigote stage of Leishmania donovani MHOM/IN/00/DEVI; format: toxicity; details: read-out: Ratio CC50/IC50
# Leishmania major [16] = assay: Antileishmanial activity against promastigote stage of Leishmania major MHOM/IL/81/Friedlin after 72 hrs by MTT assay; format: functional, organism-based
# Leishmania major [17] = assay: Antileishmanial activity against intracellular amastigote stage of Leishmania major infected in human THP1 cells after 120 hrs by giemsa staining based microscopic analysis; format: functional, organism-based; details: THP-1, 120 h
# Leishmania donovani [18] = assay: Potency index, ratio of miltefosine IC50 to test compound IC50 for intracellular amastigote stage of Leishmania donovani infected in human THP1 cells; format: functional
# Leishmania infantum [19] = assay: Potency index, ratio of fexinidazole IC50 to test compound IC50 for Leishmania infantum axenic amastigotes; format: functional
# Trichomonas vaginalis = assay: Antiprotozoal activity against Trichomonas vaginalis TVR87 measured after 48 hrs by trypan blue assay; format: functional, organism-based
# Plasmodium falciparum = assay: Antiplasmodial activity against chloroquine/proguanil/pyrimethamine-resistant synchronized stage of Plasmodium falciparum K1 after 72 hrs by SYBR green1 staining based spectrophotometric method; format: functional, organism-based; details: K1, 72 h
# Trypanosoma cruzi = assay: Antitrypanosomal activity against Trypanosoma cruzi MHOM/BR/78/Silvio cloneX10/7A epimastigotes measured after 4 days by resazurin dye based fluorescence assay; format: functional, organism-based; details: 96 h
# [20] = Cytotoxicity against human THP1 cells after 72 hrs by MTT assay; format: cell-based; details: THP-1 cells
# [21] = Solubility of the compound in RPMI medium at >62.5 uM; format: physicochemical
# [22] = Half life in CD-1 mouse hepatic microsomes in presence of NADPH by LC-MS/MS analysis; format: ADME, Microsome; details: liver microsomes
# [23] = Drug metabolism in CD-1 mouse hepatic microsomes assessed as 6-chloro-8-(4-chlorophenylsulfinyl)-3-nitro-2-(phenylsulfonylmethyl)imidazo[1,2-a]pyridine formation in presence of NADPH by LC-MS/MS analysis; format: ADME, Liver, Microsome
# [24] = Mutagenicity in Salmonella typhimurium TA97a at 62.5 to 625 uM preincubated for 1 hr followed by addition of molten top agar and measured 48 hrs post dark incubation by Ames test; format: toxicity; details: salmonella enterica subsp. enterica serovar typhimurium
# [25] = Mutagenicity in Salmonella typhimurium TA98 at 62.5 to 625 uM preincubated for 1 hr followed by addition of molten top agar and measured 48 hrs post dark incubation by Ames test; format: toxicity; details: salmonella enterica subsp. enterica serovar typhimurium
# [26] = Mutagenicity in Salmonella typhimurium TA100 at 62.5 to 625 uM preincubated for 1 hr followed by addition of molten top agar and measured 48 hrs post dark incubation by Ames test; format: toxicity; details: salmonella enterica subsp. enterica serovar typhimurium
# [27] = Mutagenicity in Salmonella typhimurium TA102 at 62.5 to 625 uM preincubated for 1 hr followed by addition of molten top agar and measured 48 hrs post dark incubation by Ames test; format: toxicity; details: salmonella enterica subsp. enterica serovar typhimurium
# [28] = Mutagenicity in Salmonella typhimurium TA97a at 62.5 to 625 uM preincubated for 1 hr with S9 mix followed by addition of molten top agar and measured 48 hrs post dark incubation by Ames test; format: toxicity, subcellular; details: salmonella enterica subsp. enterica serovar typhimurium, s9, 48 h
# [29] = Mutagenicity in Salmonella typhimurium TA98 at 62.5 to 625 uM preincubated for 1 hr with S9 mix followed by addition of molten top agar and measured 48 hrs post dark incubation by Ames test; format: toxicity, subcellular; details: salmonella enterica subsp. enterica serovar typhimurium, s9, 48 h
# [30] = Mutagenicity in Salmonella typhimurium TA100 at 62.5 to 625 uM preincubated for 1 hr with S9 mix followed by addition of molten top agar and measured 48 hrs post dark incubation by Ames test; format: toxicity, subcellular; details: salmonella enterica subsp. enterica serovar typhimurium, s9, 48 h
# [31] = Mutagenicity in Salmonella typhimurium TA102 at 62.5 to 625 uM preincubated for 1 hr with S9 mix followed by addition of molten top agar and measured 48 hrs post dark incubation by Ames test; format: toxicity, subcellular; details: salmonella enterica subsp. enterica serovar typhimurium, s9, 48 h
# HepG2 = assay: Genotoxicity in human HepG2 cells at 1 to 20 uM after 2 to 72 hrs by comet assay; format: toxicity, cell-based; details: hepg2, 20 µM
# Albumin [32] = target: T1, Albumin (Homo sapiens, UniProt P02768); assay: Binding affinity to human serum albumin after 4 hrs by LC-MS analysis; format: ADME; details: read-out: PB (converted)
# Albumin [33] = target: T1, Albumin; assay: Binding affinity to human serum albumin assessed as unbound fraction after 4 hrs by LC-MS analysis; format: ADME; details: isolated protein
# [34] = Lipophilicity, log D of the compound at pH 7.4 by HPLC analysis; format: physicochemical; details: buffer
# [35] = Acute toxicity in Swiss mouse at 1 to 10 mg/kg, ip measured for 24 hrs; format: organism-based; details: in vivo
# [36] = Toxicity in Swiss mouse assessed as effect on brain at 1 mg/kg, ip administered for 5 days measured measured on day 7 to day 30 post last dose by HES staining based microscopic analysis; format: organism-based; details: in vivo, 120 h
# [37] = Toxicity in Swiss mouse assessed as effect on liver at 1 mg/kg, ip administered for 5 days measured measured on day 7 to day 30 post last dose by HES staining based microscopic analysis; format: organism-based; details: in vivo, 120 h
# [38] = Toxicity in Swiss mouse assessed as effect on kidney at 1 mg/kg, ip administered for 5 days measured measured on day 7 to day 30 post last dose by HES staining based microscopic analysis; format: organism-based; details: in vivo, 120 h
# [39] = Toxicity in Swiss mouse assessed as effect on spleen at 1 mg/kg, ip administered for 5 days measured measured on day 7 to day 30 post last dose by HES staining based microscopic analysis; format: organism-based; details: in vivo, 120 h
# [40] = Toxicity in Swiss mouse assessed as effect on heart at 1 mg/kg, ip administered for 5 days measured measured on day 7 to day 30 post last dose by HES staining based microscopic analysis; format: organism-based; details: in vivo, 120 h
# [41] = Toxicity in Swiss mouse assessed as effect on lungs at 1 mg/kg, ip administered for 5 days measured measured on day 7 to day 30 post last dose by HES staining based microscopic analysis; format: organism-based; details: in vivo, 120 h
# [42] = Toxicity in Swiss mouse assessed as effect on adipose tissue at 1 mg/kg, ip administered for 5 days measured measured on day 7 to day 30 post last dose by HES staining based microscopic analysis; format: organism-based; details: in vivo, 120 h
# [43] = Toxicity in Swiss mouse assessed as effect on muscles at 1 mg/kg, ip administered for 5 days measured measured on day 7 to day 30 post last dose by HES staining based microscopic analysis; format: organism-based; details: in vivo, 120 h
# [44] = Toxicity in Swiss mouse assessed as effect on liver by measuring inflammatory cell infiltration at 10 mg/kg, ip administered for 5 days measured measured on day 7 to day 30 post last dose by HES staining based microscopic analysis; format: organism-based; details: in vivo, 120 h
# [45] = Toxicity in Swiss mouse assessed as effect on skin by measuring hypodermic lymph node at 10 mg/kg, ip administered for 5 days measured measured on day 7 to day 30 post last dose by HES staining based microscopic analysis; format: organism-based; details: in vivo, 120 h
# [46] = Toxicity in Swiss mouse assessed as fibrosis at injection site 10 mg/kg, ip administered for 5 days measured measured on day 7 to day 30 post last dose by HES staining based microscopic analysis; format: organism-based; details: in vivo, 120 h
# [47] = Toxicity in Swiss mouse assessed as inflammation at injection site 10 mg/kg, ip administered for 5 days measured measured on day 7 to day 30 post last dose by HES staining based microscopic analysis; format: organism-based; details: in vivo, 120 h
# [48] = Solubility of the compound in RPMI medium at >40 uM; format: physicochemical
# T1 sequence (P02768 whole entry): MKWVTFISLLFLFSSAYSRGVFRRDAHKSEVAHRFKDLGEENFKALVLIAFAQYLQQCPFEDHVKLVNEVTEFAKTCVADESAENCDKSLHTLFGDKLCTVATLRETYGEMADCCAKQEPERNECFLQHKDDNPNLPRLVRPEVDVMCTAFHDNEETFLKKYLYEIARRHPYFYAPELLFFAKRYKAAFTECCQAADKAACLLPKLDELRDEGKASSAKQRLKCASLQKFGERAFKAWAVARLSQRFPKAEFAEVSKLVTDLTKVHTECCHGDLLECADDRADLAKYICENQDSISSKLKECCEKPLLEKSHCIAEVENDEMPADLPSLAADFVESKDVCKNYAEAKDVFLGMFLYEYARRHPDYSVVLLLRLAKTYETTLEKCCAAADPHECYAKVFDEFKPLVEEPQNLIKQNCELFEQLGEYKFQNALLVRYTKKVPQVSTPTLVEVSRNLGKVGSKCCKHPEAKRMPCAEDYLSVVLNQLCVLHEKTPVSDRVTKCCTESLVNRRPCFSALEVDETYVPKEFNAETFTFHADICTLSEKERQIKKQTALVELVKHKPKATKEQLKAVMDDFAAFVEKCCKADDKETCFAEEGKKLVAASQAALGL
structure (smiles),measurement,setting,value
Nc1c(CS(=O)(=O)c2ccccc2)nc2c(Sc3ccc(Cl)cc3)cc(Cl)cn12,CC50 at 72 h,[1],> 62500 nM
same,IC50,Leishmania donovani [2],124000 nM
same,IC50,Leishmania infantum [3],31600 nM
same,IC50,[4],10600 nM
same,solubility,[5],Insoluble
O=[N+]([O-])c1c(CS(=O)(=O)c2ccccc2)nc2c(S(=O)(=O)c3ccc(Cl)cc3)cc(Cl)cn12,CC50 at 72 h,[1],> 12500 nM
same,IC50,Leishmania donovani [2],1300 nM
same,IC50,Leishmania infantum [3],3700 nM
same,IC50,[4],1000 nM
same,solubility,[6],Insoluble
same,IC50,Leishmania donovani [7],600 nM
same,IC50,[8],80 nM
same,IC50,[9],700 nM
same,Ratio IC50,Leishmania donovani [10],8
same,Ratio IC50,Leishmania donovani [11],8
same,Activity,[12],-0.59 V
O=[N+]([O-])c1c(CS(=O)(=O)c2ccccc2)nc2c(Sc3ccc(Cl)cc3)cc(Cl)cn12,IC50,Leishmania donovani [13],1000 nM
same,CC50 at 72 h,[1],> 100000 nM
same,solubility,[14],Soluble
same,selectivity ratio,[15],> 100
same,IC50,Leishmania donovani [2],1000 to 1300 nM
same,IC50,Leishmania infantum [3],1700 nM
same,IC50,Leishmania major [16],1300 nM
same,IC50,Leishmania major [17],2100 nM
same,Ratio IC50,Leishmania donovani [18],3
same,Ratio IC50,Leishmania infantum [19],2
same,IC50,Trichomonas vaginalis,4600 to 5000 nM
same,IC50,Plasmodium falciparum,19000 nM
same,IC50,[4],1300 nM
same,IC50,Trypanosoma cruzi,2200 nM
same,CC50 at 72 h,[20],> 62500 nM
same,solubility,[21],Insoluble
same,half-life,[22],3 min
same,Drug metabolism,[23],Metabolite_Detected
same,Activity,[24],Non-Toxic
same,Activity,[25],Non-Toxic
same,Activity,[26],Non-Toxic
same,Activity,[27],Non-Toxic
same,Activity,[28],Non-Toxic
same,Activity,[29],Non-Toxic
same,Activity,[30],Non-Toxic
same,Activity,[31],Non-Toxic
same,Activity,HepG2,Non-Toxic
same,fraction unbound at 4 h,Albumin [32],0.0005
same,logFu,Albumin [33],-3.28
same,logD,[34],4.26
same,IC50,Leishmania donovani [7],260 nM
same,IC50,[8],33 nM
same,IC50,[9],300 nM
same,Ratio IC50,Leishmania donovani [10],8
same,Ratio IC50,Leishmania donovani [11],8
same,Activity,[12],-0.63 V
same,Activity,[35],Non-Toxic
same,Activity,[36],Non-Toxic
same,Activity,[37],Non-Toxic
same,Activity,[38],Non-Toxic
same,Activity,[39],Non-Toxic
same,Activity,[40],Non-Toxic
same,Activity,[41],Non-Toxic
same,Activity,[42],Non-Toxic
same,Activity,[43],Non-Toxic
same,Activity,[44],Non-Toxic
same,Activity,[45],Non-Toxic
same,Activity,[46],Non-Toxic
same,Activity,[47],Non-Toxic
CCCCCCCCCCCCCCCCOP(=O)([O-])OCC[N+](C)(C)C [MILTEFOSINE],CC50 at 72 h,[20],> 40000 nM
same,solubility,[48],Insoluble
